According to patent US6121241A, “Anticoagulant peptide aldehyde derivatives” (Gyogyszerkutato Intezet Kft., priority 1996, dated 2000):
Where two headings read alike, the source gives them in different places.

What was measured:
plasmin (PL) = plasmin (PL) (Homo sapiens, UniProt P00747); test: Fibrin-plate method, plasmin; assay type: biochemical; conditions: for IC50: fibrin-plate method, hydrolyzed area reduced by 50%
Excerpt: (§1) The inhibitory effect of the new compounds of the invention on plasmin (PL) as well as on plasmin formation induced by tissue plasminagen activator (tPA) and urokinase (UK) was studied by the […] [D. Bagdy et al.; Thromb. Haemost. 67, 325 (1992)]. Compounds C1 and C3 served as controls. […] V. Jackson et al., J. Cardiovasc. Pharmacol. 21, 587 (1993)].
(§2) ^a IC50 = peptide concentration (mM) where the hydrolyzed area o
(§3) the fibrin plate is reduced by 50% compared to the control

[1] = target: tissue plasminogen activator (tPA) (Homo sapiens, UniProt P00750); test: Fibrin-plate method, plasmin formation induced by tPA; assay type: biochemical; conditions: for IC50: fibrin-plate method, hydrolyzed area reduced by 50%
tissue plasminogen activator (tPA), sequence (P00750 36-562, species assumed): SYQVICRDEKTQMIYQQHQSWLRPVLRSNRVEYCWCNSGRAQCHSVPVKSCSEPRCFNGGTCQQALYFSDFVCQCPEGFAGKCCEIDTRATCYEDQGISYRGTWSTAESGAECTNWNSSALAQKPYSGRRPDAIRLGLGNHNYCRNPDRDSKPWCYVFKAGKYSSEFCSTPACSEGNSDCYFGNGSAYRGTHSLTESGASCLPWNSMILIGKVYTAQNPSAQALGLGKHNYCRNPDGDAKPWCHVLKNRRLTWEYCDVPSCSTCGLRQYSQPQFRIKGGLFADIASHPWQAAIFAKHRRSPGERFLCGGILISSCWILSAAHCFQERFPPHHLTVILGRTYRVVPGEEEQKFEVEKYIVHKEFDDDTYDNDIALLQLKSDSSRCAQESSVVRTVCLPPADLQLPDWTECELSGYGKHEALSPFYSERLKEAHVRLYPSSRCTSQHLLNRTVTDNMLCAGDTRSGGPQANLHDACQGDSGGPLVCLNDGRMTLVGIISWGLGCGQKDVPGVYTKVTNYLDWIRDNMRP
Excerpt: as §1, §2, §3

thrombin time (TT) = test: Ex vivo TT in citrate plasma of rabbits after p.o. dosing; parameters: species or system New Zealand white rabbits; conditions: p.o. 5 mg/kg
Procedure: (§4) The anticoagulant and platelet aggregation inhibiting effect of the compounds of general formula (I) was studied In New Zealand white rabbits ex vivo according to D. Bagdy et al [Thromb. Haemost 67. 357 (1992). The compounds were dissolved in buffered isotonic saline solution and administered i.v. (0,04-5.0 mg/kg) or by infusion (0.25-5.0 mg/kg/h) or subcutaneously (0.5-6.0 mg/kg) or p.o. (2.5-20 mg/kg). The effect of the compounds was detectable already within 30 minutes following p.o. administration, peak values were attained after 60-180 minutes and the therapeutic level was maintained dose-dependently for 3→6 hours.
(§5) The in vivo effect of D-cHga Pro-Arg-H (1) is presented in detail in Tables 5 and 6. The corresponding values of C1 are listed as controls. The compound was administered p.o. in doses of 5 mg/kg. The blood samples drawn from the caudal vein in every 30-60 minutes were analyzed. The whole blood clotting time (WBCT) and the inhibition of thrombin-induced blood platelet aggregation (PAI) were determined. The activated partial thromboplastin time (APTT) and the thrombin time (TT) in the citrate plasma obtained from the blood sample were also measured. The APTT and TT values are compiled in Table 5 and the WBCT and PAI values in Table 6.

urokinase (UK) = urokinase (UK) (Homo sapiens, UniProt P00749); test: Fibrin-plate method, plasmin formation induced by urokinase; assay type: biochemical; conditions: for IC50: fibrin-plate method, hydrolyzed area reduced by 50%
Excerpt: as §1, §2, §3

[2] = tested on: thrombin-induced blood platelet aggregation; test: Ex vivo inhibition of thrombin-induced blood platelet aggregation (PAI) in rabbits after p.o. dosing; parameters: species or system New Zealand white rabbits; conditions: p.o. 5 mg/kg
Procedure: as §4, §5

thrombin = target: T1, thrombin (Homo sapiens, UniProt P00734); test: Inhibition of the amidolytic effect of thrombin on Tos-Gly-Pro-Arg-pNA; assay type: biochemical; conditions: Tos-Gly-Pro-Arg-pNA substrate
T1 construct: The isolated active factor (e.g. thrombin, fXa) and its chromogen or fluorogen peptide-amide substrate are reacted
Procedure: Anticoagutant activity (i.e. inhibition of the proteolytic reactions in the process) is measured by anticoagulant tests, e.g. by the thrombin time (TT), activated partial thromboplastin time (APTT) and prothrombin time (PT) tests [E. J. W. Bovie et al; Mayo Clinic Laboratory Manual of Hemostasis; W. B. Sanuders Co., Philadelphia (1971)]. Plasma, inhibited in spontaneous coagulation, e.g. citrate-plasma, is made to coagulate and the required coagulation time is measured. Upon the action of anticoagulants the coagulation time is prolonged proportionally to the inhibition of the reaction(s) in the process. The anticoagulant effect can be characterized by the substance concentration required to double the coagulation time compared to the control (IC50). The effect of anticoagulants on individual coagulant proteases is measured by the amidolytic method [R. Lottenberg et al., Methods in Enzymol. 80, 341 (1981); G. Cleason, Blood Coagulation and Fibrinolysis 5, 411 (1994)]. The isolated active factor (e.g. thrombin, fXa) and its chromogen or fluorogen peptide-amide substrate are reacted in the presence or absence of the inhibitor, resp. The enzyme inhibiting action is characterized by the inhibitory constant (IC50) measured during amidolysis.
In the case of D-MePhe-Pro-Arg-H (C1) the concentration doubling the clotting time in the TT, APTT and PT tests amounted to 87, 622 and 2915 nM, resp.

[3] = related to the activity of C1 (1/IC50 = 1)

plasmin (PL), sequence (P00747 581-810 limits assumed, species assumed): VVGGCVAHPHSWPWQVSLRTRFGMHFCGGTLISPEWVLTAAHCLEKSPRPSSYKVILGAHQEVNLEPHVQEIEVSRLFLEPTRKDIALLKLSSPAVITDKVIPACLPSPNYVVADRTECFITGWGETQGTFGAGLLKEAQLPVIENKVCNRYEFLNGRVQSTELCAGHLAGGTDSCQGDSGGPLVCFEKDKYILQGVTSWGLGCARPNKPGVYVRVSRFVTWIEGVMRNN
plasmin (PL), sequence (P00747 97-580 partner limits assumed, species assumed): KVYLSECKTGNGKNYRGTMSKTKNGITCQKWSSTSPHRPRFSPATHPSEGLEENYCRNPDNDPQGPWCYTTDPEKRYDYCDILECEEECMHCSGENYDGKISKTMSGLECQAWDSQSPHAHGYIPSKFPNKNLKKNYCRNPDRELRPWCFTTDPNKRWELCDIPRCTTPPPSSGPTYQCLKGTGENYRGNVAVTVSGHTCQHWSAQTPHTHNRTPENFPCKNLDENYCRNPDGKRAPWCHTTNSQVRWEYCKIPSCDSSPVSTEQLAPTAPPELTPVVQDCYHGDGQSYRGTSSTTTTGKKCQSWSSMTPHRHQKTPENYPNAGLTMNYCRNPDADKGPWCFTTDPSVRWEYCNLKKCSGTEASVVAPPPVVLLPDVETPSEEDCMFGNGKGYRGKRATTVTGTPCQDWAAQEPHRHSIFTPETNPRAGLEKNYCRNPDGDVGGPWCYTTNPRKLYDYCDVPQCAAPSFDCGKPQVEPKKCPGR

Compound | IC50 (plasmin (PL)) | IC50 [1] | TT relative clotting time (thrombin time (TT); 0 min) | TT relative clotting time (thrombin time (TT); 30 min) | TT relative clotting time (thrombin time (TT); 45 min) | TT relative clotting time (thrombin time (TT); 60 min) | TT relative clotting time (thrombin time (TT); 90 min) | TT relative clotting time (thrombin time (TT); 120 min) | TT relative clotting time (thrombin time (TT); 180 min) | TT relative clotting time (thrombin time (TT); 240 min) | IC50 (urokinase (UK)) | PAI(%) ([2]; 0 min) | PAI(%) ([2]; 30 min) | PAI(%) ([2]; 45 min) | PAI(%) ([2]; 60 min) | PAI(%) ([2]; 90 min) | PAI(%) ([2]; 120 min) | PAI(%) ([2]; 180 min) | PAI(%) ([2]; 240 min) | further results
N=C(N)NCCC[C@@H](C=O)NC(=O)[C@H]1CCCN1C(=O)C(O)C1CCCCCC1.N=C(N)NCCC[C@@H](C=O)NC(=O)[C@H]1CCCN1C(=O)C(O)C1CCCCCC1.O=S(=O)(O)O (stereo partly drawn) [Compound 1, D-2-Cycloheptyl-2-hydroxyacetyl-L-prolyl-L-arginine aldehyde hemisulfate] | 83 µM | 74 µM | 1.0 | 10.57 ± 5.98 | 10.89 ± 5.89 | 11.67 ± 5.69 | 14.00 ± 6.48 | 10.60 ± 4.22 | 2.22 ± 0.71 | 1.23 ± 0.07 | 120 µM | 0% | 71.0 ± 19.4% | 74.0 ± 13.9% | 91.0 ± 4.5% | 93.0 ± 3.5% | 92.4 ± 6.5% | 71.6 ± 19.8% | 49.4 ± 21.5% | B: relative efficacy, PL (plasmin (PL)): 0.6; times lower activity than compound C3, first enzyme (PL) (plasmin (PL); versus C3 of Table 4): 7.5; B: relative efficacy, tPA [1]: 1.8; times lower activity than compound C3, second enzyme (tPA) ([1]; versus C3 of Table 4): 12; TT relative clotting time (thrombin time (TT); 300 min): 1.13 ± 0.05; B: relative efficacy, UK (urokinase (UK)): 0.7; times lower activity than compound C3, third enzyme (UK) (urokinase (UK); versus C3 of Table 4): 39
CN[C@H](Cc1ccccc1)C(=O)N1CCC[C@H]1C(=O)N[C@H](C=O)CCCNC(=N)N [Compound C1, D-MePhe-Pro-Arg-H] | 54 µM | 132 µM | 1.0 | 1.52 ± 0.17 | 2.50 ± 0.44 | 4.75 ± 1.38 | 10.50 ± 5.49 | 5.51 ± 3.59 | 2.05 ± 0.38 | 1.81 ± 0.39 | 82 µM | 0% | 52.8 ± 14.7% | 58.4 ± 15.6% | 54.2 ± 11.6% | 83.2 ± 8.9% | 75.2 ± 12.3% | 47.5 ± 20.9% | 32.2 ± 16.0% | IC50 (thrombin): 0.002 µM; B: relative efficacy, PL (plasmin (PL); [3]): 1.0; B: relative efficacy, tPA [1, 3]: 1.0; B: relative efficacy, UK (urokinase (UK); [3]): 1.0
